From patent publication US10143650B2, “Dispersion intended for encapsulating an active product and associated use” (CAPSUM, priority 2012, dated 2018)

Columns and labels:
[1] = partition coefficient of the active product between membrane phase and internal phase (octanol/water) and ratio R2 over membrane viscosity; format: physicochemical; conditions: concentration in octanol over concentration in water
[2] = leakage of encapsulated active product into the continuous phase (optical absorbance versus time); format: physicochemical
From the text: FIG. 4 is a graph illustrating the absorbance in the continuous phase in a dispersion according to the invention, wherein an active absorbent product was encapsulated in the dispersed phase;
FIG. 5 is a view similar to FIG. 4 for a dispersion according to the invention containing another absorbent active product; and
FIGS. 4 and 5 respectively illustrate the ratio of optical absorbance in the continuous phase 14 versus time for respectively the dispersion of the first example containing dextran, and for the dispersion of the second example containing bovine serum albumin.

[3] = absorbance in continuous phase, after more than one week at 50° C., R1 0.38

In the case of `CCN(CC)c1ccc2c(-c3ccccc3C(=O)O)c3ccc(=[N+](CC)CC)cc-3oc2c1.[Cl-]` [Rhodamine B], the “partition coefficient (K, Cp) of the active product” value (“partition coefficient (K, Cp)” for short) [1] is reported as 70.8 and the “leakage of active product from the dispersed bodies” value (from here on “leakage of active product”) ([2]; R2 equal to 3.05, time and temperature not stated) is reported as “leakage is observed”.
For bovine serum albumin, the “partition coefficient (K, Cp)” value [1] was “less than 10^−3” and the “leakage of active product” value [2, 3] was “no leakage”.
With dextran the “partition coefficient (K, Cp)” value [1] was “less than 10^−2” and the “leakage of active product” value [2, 3] was “no leakage”.
